{
  "source": "patent US20240003908A1",
  "about": "“POLYOL BIOMARKERS FOR CONGENITAL DISORDERS OF GLYCOSYLATION” (Mayo Foundation for Medical Education and Research, priority 2020, published 2024)",
  "key": {"[1]": {"system": "PMM-deficient fibroblasts", "experiment": "Multiplexed proteomics of PMM-deficient fibroblasts treated with epalrestat or vehicle", "format": "cell-based, human", "from_the_text": "Proteomics and glycoproteomics: Cell were scraped in PBS, pH 7.4 and sonicated with a tip sonicator at 40% amplitude for 3 cycles of 10 seconds each. Equal amount of proteins were digested with trypsin as described elsewhere (Mun et al., Anal Chem 92:14466-14475, 2020). The digested peptides were labeled with tandem mass tag (TMT) reagents as per the manufacturer's instructions (ThermoFisher). Labelled samples were pooled, and either size-exclusion chromatography or basic pH reversed-phase fractionation was performed. An aliquot of dried peptides was resuspended in 100 μL of 0.1% formic acid and injected into Superdex peptide 10/300 column (GE Healthcare). Twenty-one (21) early fractions were collected starting at 10 minutes after injection (total run time of 130 minutes) and analyzed by LC-MS/MS as described elsewhere (Mun et al., supra). Another aliquot of total peptides was cleaned up by C18 TopTips (Glygen) and fractionated by bRPLC on a reversed phase C18 column (4.6×100 mm column). Twelve (12) fractions were dried and re-suspended in 0.1% formic acid for LC-MS/MS analysis.\nA modification of the LC-MS/MS parameters described by Mun et al. (supra) were used. Specifically, 21 early fractions from SEC and 12 fractions of bRPLC were analyzed by Orbitrap Exploris480 mass spectrometer (Thermo Fisher Scientific) coupled to an EASY-Spray column (Thermo Fisher Scientific). Every run was 130 minutes with a flow rate of 300 nL/minute. The gradient used for separation was: equilibration at 3% solvent B from 0 to 4 minutes, 3% to 10% sol B from 4 to 10 minutes, 10% to 35% sol B from 10.1 to 125 minutes, and 35% to 80% sol B from […]. All experiments were done in DDA mode with the top 15 ions isolated at a window of 0.7 m/z and a default charge state of +2. Charge states ranging from +2 to +7 were considered for MS/MS events. Stepped collision energy was applied to precursors at normalized collision energies of 15, 25, and 40. The MS precursor mass range was set to 375 to 2000 m/z and 100 to 2000 for MS/MS. The automatic gain control for MS and MS/MS were 1×10^6 and 1×10^5 and the injection times to reach AGC were 50 ms and 250 ms, respectively. 60 second dynamic exclusion was applied. Data acquisition was performed with the option of Lock mass (441.1200025 m/z) for all data.\nDatabase searching and analysis: The publicly available software pGlyco Version 2.2.0 was used (Zeng et al., Sci Rep 6:25102, 2016; and Liu et al., Nat Commun 8:438, 2017). A glycan database containing 8,092 entries and Uniprot Human Reviewed protein sequences (20,432 entries) were used as protein sequence fasta files. […] Reporter ion quantification was performed in Proteome Discoverer 2.5 using “reporter ion quantifier” node and Ids were matched with quantitation on a scan-to-scan basis (MS/MS). […]"}, "[2]": {"system": "urine sorbitol and mannitol", "experiment": "Urine polyols (GC/MS) in patients with other CDG, post-treatment with epalrestat", "format": "in vivo, human", "experimental": "Urine specimens were collected from patients known to have a CDG. The samples were spiked with a mixture of labeled internal standards, allowed to equilibrate, and evaporated. The dry residue was derivatized to form trimethylsilyl esters then extracted with hexane. Specimens were analyzed by GC/MS, with selected ion monitoring using ammonia chemical ionization and a stable isotope dilution method (Jansen et al. Clin Chim Acta 1986, 157:277-294; and Kaur et al., Eur J Med Genet 2019, 62(8):103708). Sorbitol levels were considered elevated when they were above 10 mmol/mol creatinine, and mannitol levels were considered elevated when they were above 15 mmol/mol creatinine."}, "[3]": {"system": "blood transferrin glycosylation", "experiment": "Blood transferrin glycoform ratio analysis by mass spectrometry in patient P1", "format": "in vivo, human", "details": "for A-oligo/Di-oligo: control ratio ≤ 0.01; for Mono-oligo/Di-oligo: control ratio ≤ 0.06", "experimental": "Patient assessment: Prior to the first dose of epalrestat and at 1, 2, 3, 6, 8, 9, 12 months during treatment, concomitant medications and vital signs were recorded and the patient was evaluated using the NPCRS. In addition, blood was drawn for serum chemistry, hematology, and plasma levels of epalrestat. Urine was collected for polyol measurement at baseline and twice over the course of 12 months of therapy.\nSafety and efficacy: Safety measures included vital signs, change in CBC, liver function (INR, bilirubin, transaminases, and albumin) in blood, change in liver elastography, and following the pharmacokinetic profile of epalrestat. The efficacy of epalrestat was studied by clinical follow up (physical exam, NPCRS, ICARS), standard laboratory tests, and transferrin glycoform analysis by mass spectrometry."}, "LAMP-2": {"system": "LAMP-2", "experiment": "LAMP-2 protein (immunoblot) and mRNA (RT-qPCR) in PMM-deficient fibroblasts", "format": "cell-based, human", "details": "10 μM epalrestat", "from_the_text": "Effect of epalrestat on glycosylation biomarkers in vitro: Immunoblotting and RT-qPCR were used to measure Intercellular Adhesion Molecule 1 (ICAM-1) and Lysosomal Associated Membrane Protein 2 (LAMP-2) protein and mRNA expression levels, respectively, as cellular markers of N-glycosylation (Ferrer et al., Mol Genet Metab 131:424-429, 2020; He et al., J Biol Chem 287:18210-18217, 2012; Eskelinen, Mol Aspects Med 27:495-502, 2006; and Radenkovic et al., Mol Genet Metab 132:27-37, 2021) in 10 PMM-deficient fibroblast lines (P1-P6, P8, P17, P19, and P24) and in control fibroblasts, treated with 10 μM epalrestat (the optimal dose based on PMM enzyme activity as described above)."}},
  "note": "Marks after values point to notes of the source that are not given here.",
  "data": [
    {"smiles": "CC(/C=C1\\SC(=S)N(CC(=O)O)C1=O)=C\\c1ccccc1", "note": "[epalrestat]", "values": [
      {"measurement": "Sorbitol dehydrogenase (SORD) increase in abundance", "setting": "[1]; epalrestat-treated vs untreated PMM2-CDG fibroblasts", "result": 11, "unit": "%"},
      {"measurement": "number of proteins increased post treatment (30% cutoff)", "setting": "[1]; of the 13 changed proteins", "result": 12},
      {"measurement": "number of proteins different post-treatment with a 30% or bigger change cutoff", "setting": "[1]; paired analysis before and after epalrestat", "result": 13, "unit": "proteins"},
      {"measurement": "number of proteins different post-treatment", "setting": "[1]; paired analysis before and after epalrestat, P1-P6 fibroblasts", "result": 628, "unit": "proteins"},
      {"measurement": "Mannitol (urine)", "setting": "[2]; MAN1B1-CDG patient, second sample, after off-label epalrestat, first sample 14.92", "result": "2) 10.13 mmol/mol creatinine"},
      {"measurement": "Sorbitol (urine)", "setting": "[2]; MAN1B1-CDG patient, second sample, post-treatment with epalrestat, first sample 10.44", "result": "2) 7.222^‡ mmol/mol creatinine"},
      {"measurement": "Sorbitol (urine)", "setting": "[2]; SLC39A8-CDG patient, marked post-treatment with epalrestat", "result": "18.0^‡ mmol/mol creatinine"},
      {"measurement": "A-oligo/Di-oligo", "setting": "[3]; patient P1, 1st month of epalrestat, prior to first dose 0.005", "result": 0.005},
      {"measurement": "Mono-oligo/Di-oligo", "setting": "[3]; patient P1, 1st month of epalrestat, prior to first dose 0.09", "result": 0.14},
      {"measurement": "A-oligo/Di-oligo", "setting": "[3]; patient P1, 2nd month", "result": 0.01},
      {"measurement": "Mono-oligo/Di-oligo", "setting": "[3]; patient P1, 2nd month", "result": 0.07},
      {"measurement": "A-oligo/Di-oligo", "setting": "[3]; patient P1, 3rd month", "result": 0.004},
      {"measurement": "Mono-oligo/Di-oligo", "setting": "[3]; patient P1, 3rd month", "result": 0.08},
      {"measurement": "A-oligo/Di-oligo", "setting": "[3]; patient P1, 6th month", "result": 0.003},
      {"measurement": "Mono-oligo/Di-oligo", "setting": "[3]; patient P1, 6th month", "result": 0.06},
      {"measurement": "A-oligo/Di-oligo", "setting": "[3]; patient P1, 8th month", "result": 0.004},
      {"measurement": "Mono-oligo/Di-oligo", "setting": "[3]; patient P1, 8th month", "result": 0.06},
      {"measurement": "A-oligo/Di-oligo", "setting": "[3]; patient P1, 9th month", "result": 0.004},
      {"measurement": "Mono-oligo/Di-oligo", "setting": "[3]; patient P1, 12th month, after dose correction", "result": 0.06},
      {"measurement": "A-oligo/Di-oligo", "setting": "[3]; patient P1, 12th month", "result": 0.004},
      {"measurement": "LAMP-2 mRNA expression", "setting": "LAMP-2", "result": "no effect"}
    ]}
  ]
}
